# Measured values published in PubChem BioAssay AID2060895 (Molecular Pharmacology Branch, DTP, NCI, 2025).
# Tested on: PDC 899932-113-R3-J6 complex spheroid viability
# Test: Anticancer human tumor 899932-113-R3-J6-PDC patient-derived melanoma cell line growth inhibition [RAS]
# Details: for IC50: curve of first compound; for viability, T/C: stronger effect = lower value
# Summary of the method: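 Multi-cell-type spheroids: tumor cells plus HUVEC endothelial cells and mesenchymal stem cells. RAS-pathway inhibitors were combined with targeted agents, each dosed in half-log steps down from clinical Cmax, or from 10 microM when Cmax was unknown.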
# [1] = second compound 0.000949 µM, first compound 0.00316 µM
# [2] = second compound 0.000949 µM, first compound 0.01 µM
# [3] = second compound 0.000949 µM, first compound 0.0316 µM
# [4] = second compound 0.000949 µM, first compound 0.1 µM
# [5] = second compound 0.000949 µM, first compound 0.316 µM
# [6] = second compound 0.000949 µM, first compound 1 µM
# [7] = second compound 0.003 µM, first compound 0.00316 µM
# [8] = second compound 0.003 µM, first compound 0.01 µM
# [9] = second compound 0.003 µM, first compound 0.0316 µM
# [10] = second compound 0.003 µM, first compound 0.1 µM
# [11] = second compound 0.003 µM, first compound 0.316 µM
# [12] = second compound 0.003 µM, first compound 1 µM
# [13] = second compound 0.00949 µM, first compound 0.00316 µM
# [14] = second compound 0.00949 µM, first compound 0.01 µM
# [15] = second compound 0.00949 µM, first compound 0.0316 µM
# [16] = second compound 0.00949 µM, first compound 0.1 µM
# [17] = second compound 0.00949 µM, first compound 0.316 µM
# [18] = second compound 0.00949 µM, first compound 1 µM
# [19] = second compound 0.03 µM, first compound 0.00316 µM
# [20] = second compound 0.03 µM, first compound 0.01 µM
# [21] = second compound 0.03 µM, first compound 0.0316 µM
# [22] = second compound 0.03 µM, first compound 0.1 µM
# [23] = second compound 0.03 µM, first compound 0.316 µM
# [24] = second compound 0.03 µM, first compound 1 µM
# [25] = second compound 0.0949 µM, first compound 0.00316 µM
# [26] = second compound 0.0949 µM, first compound 0.01 µM
# [27] = second compound 0.0949 µM, first compound 0.0316 µM
# [28] = second compound 0.0949 µM, first compound 0.1 µM
# [29] = second compound 0.0949 µM, first compound 0.316 µM
# [30] = second compound 0.0949 µM, first compound 1 µM
# [31] = second compound 0.3 µM, first compound 0.00316 µM
# [32] = second compound 0.3 µM, first compound 0.01 µM
# [33] = second compound 0.3 µM, first compound 0.0316 µM
# [34] = second compound 0.3 µM, first compound 0.1 µM
# [35] = second compound 0.3 µM, first compound 0.316 µM
# [36] = second compound 0.3 µM, first compound 1 µM
# 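Throughout, for viability, T/C: spheroids exposed to agents for seven days before readout; 100% = DMSO vehicle control wells.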
compound,measurement,setting,value
Nc1ccn(C2OC(CO)C(O)C2(F)F)c(=O)n1 (stereo not given) + CCn1c(-c2cccnc2C(C)OC)c2c3cc(ccc31)N1CCOC(CC(NC(=O)C(C(C)C)N(C)C(=O)C3(F)CCN(C(=O)C#CC(C)(C)N(C)C)CC3)C(=O)N3CCCC(N3)C(=O)OCC(C)(C)C2)C1,IC50,second compound 0.000949 µM,0.0198 µM
same,IC50,second compound 0.003 µM,0.0207 µM
same,IC50,second compound 0.00949 µM,0.0205 µM
same,IC50,second compound 0.03 µM,0.0196 µM
same,IC50,second compound 0.0949 µM,0.0209 µM
same,IC50,second compound 0.3 µM,0.0183 µM
same,"viability, T/C",[1],103%
same,"viability, T/C",[2],71.2%
same,"viability, T/C",[3],35.9%
same,"viability, T/C",[4],20.9%
same,"viability, T/C",[5],17.4%
same,"viability, T/C",[6],19.2%
same,"viability, T/C",[7],99.8%
same,"viability, T/C",[8],74.8%
same,"viability, T/C",[9],36.3%
same,"viability, T/C",[10],17.1%
same,"viability, T/C",[11],15.1%
same,"viability, T/C",[12],17.8%
same,"viability, T/C",[13],103%
same,"viability, T/C",[14],73.7%
same,"viability, T/C",[15],36.4%
same,"viability, T/C",[16],19.8%
same,"viability, T/C",[17],16.1%
same,"viability, T/C",[18],20.6%
same,"viability, T/C",[19],101%
same,"viability, T/C",[20],70.3%
same,"viability, T/C",[21],36.4%
same,"viability, T/C",[22],19.2%
same,"viability, T/C",[23],19%
same,"viability, T/C",[24],19.8%
same,"viability, T/C",[25],95.2%
same,"viability, T/C",[26],73.4%
same,"viability, T/C",[27],37.4%
same,"viability, T/C",[28],20.5%
same,"viability, T/C",[29],19.3%
same,"viability, T/C",[30],20.1%
same,"viability, T/C",[31],84.4%
same,"viability, T/C",[32],69.4%
same,"viability, T/C",[33],32.7%
same,"viability, T/C",[34],20.8%
same,"viability, T/C",[35],21.6%
same,"viability, T/C",[36],25.9%
O=C(c1ccc(F)c(F)c1Nc1ccc(I)cc1F)N1CC(O)([C@@H]2CCCCN2)C1 + CCn1c(-c2cc(N3CCN(C)CC3)cnc2C(C)OC)c2c3cc(ccc31)-c1csc(n1)CC(NC(=O)C1CC1C)C(=O)N1CCCC(N1)C(=O)OCC(C)(C)C2,IC50,second compound 0.000949 µM,< 0.00316 µM
same,IC50,second compound 0.003 µM,< 0.00316 µM
same,IC50,second compound 0.00949 µM,< 0.00316 µM
same,IC50,second compound 0.03 µM,< 0.00316 µM
same,IC50,second compound 0.0949 µM,< 0.00316 µM
same,IC50,second compound 0.3 µM,< 0.00316 µM
same,"viability, T/C",[1],39.5%
same,"viability, T/C",[2],11.1%
same,"viability, T/C",[3],2.22%
same,"viability, T/C",[4],1.79%
same,"viability, T/C",[5],0.22%
same,"viability, T/C",[6],0.2%
same,"viability, T/C",[7],13.7%
same,"viability, T/C",[8],2.9%
same,"viability, T/C",[9],2.47%
same,"viability, T/C",[10],1.41%
same,"viability, T/C",[11],0.18%
same,"viability, T/C",[12],0.12%
same,"viability, T/C",[13],3.2%
same,"viability, T/C",[14],2.49%
same,"viability, T/C",[15],1.79%
same,"viability, T/C",[16],0.56%
same,"viability, T/C",[17],0.06%
same,"viability, T/C",[18],0.13%
same,"viability, T/C",[19],2.9%
same,"viability, T/C",[20],2.26%
same,"viability, T/C",[21],1.17%
same,"viability, T/C",[22],0.14%
same,"viability, T/C",[23],0.07%
same,"viability, T/C",[24],0.11%
same,"viability, T/C",[25],1.79%
same,"viability, T/C",[26],1.48%
same,"viability, T/C",[27],0.57%
same,"viability, T/C",[28],0.07%
same,"viability, T/C",[29],0.1%
same,"viability, T/C",[30],0.13%
same,"viability, T/C",[31],1.39%
same,"viability, T/C",[32],1.61%
same,"viability, T/C",[33],0.46%
same,"viability, T/C",[34],0.12%
same,"viability, T/C",[35],0.17%
same,"viability, T/C",[36],0.17%
CC1(O)CCCC1n1c(=O)c(C(F)F)cc2cnc(NC3CCN(S(C)(=O)=O)CC3)nc21 (stereo not given),"viability, T/C",compound 0.0316 µM,100% [middle of 4 runs]
same,"viability, T/C",compound 0.1 µM,83.3% [middle of 4 runs]
same,"viability, T/C",compound 0.316 µM,69.4% [middle of 4 runs]
same,"viability, T/C",compound 1 µM,65.9% [middle of 4 runs]
same,"viability, T/C",compound 3.16 µM,58.3% [middle of 4 runs]
same,"viability, T/C",compound 10 µM,21.9% [middle of 4 runs]
